Values quoted from earlier work, collected in US20140221306A1 (Santen Pharmaceutical Co. Ltd, priority 2010, published 2014).

What was measured:
[1] = disclosed in Japanese Patent No. 3652707 (PTD 1)
dry eye patients = conditions: instillation of an ophthalmic solution; Cornea, 23(8), 784-792 (2004)

## O=c1ccn([C@@H]2O[C@H](COP(=O)(O)OP(=O)(O)OP(=O)(O)OP(=O)(O)OC[C@H]3O[C@@H](n4ccc(=O)[nH]c4=O)C(O)C3O)C(O)C2O)c(=O)[nH]1 (some centres unmarked) [Diquafosol, P^1,P^4-di(uridine-5′)tetraphosphate]
[1]
  effect on secretion of tears: effect of stimulating secretion of tears

## O=c1ccn([C@@H]2O[C@H](COP(=O)([O-])OP(=O)([O-])OP(=O)([O-])OP(=O)([O-])OC[C@H]3O[C@@H](n4ccc(=O)[nH]c4=O)[C@H](O)[C@@H]3O)[C@@H](O)[C@H]2O)c(=O)[nH]1.[Na+].[Na+].[Na+].[Na+] [diquafosol tetrasodium salt]
Dry eye patients
  corneal epithelium disorder of dry eye patients: improved corneal epithelium disorder
